From patent US11944624B2, “Peptide and small molecule agonists of EphA and their uses” (CASE WESTERN RESERVE UNIVERSITY, priority 2017, dated 2024)

Columns and labels:
ERK and Akt activities = ERK and Akt activities in LK133A-A2 cells (EphA2 restored); assay type: cell-based, mice
Method: (§1) Cells were plated in 24-well dishes at a density of 100,000 cells/well and grown for 24 hours prior to stimulation with appropriate compounds and ephrins for the given amounts of time. Compounds were prepared in DMSO at 500 times the final concentrations and 0.2% DMSO was used as vehicle control. Following treatment, cells were lysed directly in SDS Gel Loading Buffer and immunoblotted as described previously. Immunoprecipitation and immunofluorescence staining was performed as described. For immunoprecipitation, 300,000 cells/well were plated in 6-well dishes and lysed in modified RIPA Buffer (20 mM Tris-HCl pH 7.4, 20 mM NaF, 150 mM NaCl, 10% glycerol, 0.1% SDS, 0.5% DCA, 2 mM EDTA, 1% Triton X-100) following treatment. Either 10 μg of ephrin-A1-Fc, or […] of EphA2 mouse monoclonal antibody (Clone D7, Millipore) were used, and mouse IgG was used as a negative control for EphA2 IP.
To address this question, we utilized an immortalized liver epithelial cell line, LK133A, isolated from a hepatoma induced by DEN in EphA2 knockout mice. Retroviral vector was used to restore EphA2 expression in these cells (LK133A-A2), and cells transduced with an empty vector were used as control (LK133AVec).

PC-3 cells = experiment: Cell rounding of PC-3 cells; assay type: cell-based, human; design: dose or concentration left out as unconfirmed
Excerpt: As we first reported in 2000, EphA2 activation on PC-3 cells by ephrin-A1 induced rapid cell rounding, a phenomenon that is correlated with inhibition of integrin function.

endogenous EphA2 = endogenous EphA2 (Homo sapiens, UniProt P29317); experiment: EphA2 internalization in parental MDA-MB-231 cells (immunofluorescence, Example 1); assay type: cell-based; design: host or cells: MDA-MB-231 (parental); conditions: 50 μM, two hours
Method: as §1
Similar to other receptor tyrosine kinases, activation of the EphA2 receptor by its ligand, ephrin-A1, results in receptor internalization and eventual degradation. […] This was first performed using the U373 glioma cell line engineered to overexpress EphA2.

A172-A2 glioma cells = experiment: Haptotactic cell migration toward fibronectin, A172-A2; assay type: cell-based; conditions: A172-A2, 4 hours
Excerpt: (§2) One of the well-established functions of Eph receptors is the ligand-dependent repulsive guidance of cell migration. As a ligand-mimicking agonist for EphA2, doxazosin is expected to activate EphA2 on tumor cells and repulse migrating tumor cells in vitro. To test this possibility, we first investigated the effects of doxazosin on integrin-mediated haptotactic cell migration toward fibronectin in a modified Boyden chamber cell migration assay. […] The inhibitory effects were observed when doxazosin was presented either in the bottom chamber, or in both top and bottom chambers in the Transwell assay system. […] Therefore, doxazosin can recapitulate a key function attributed to its native ligands, i.e., negative regulation of cell migration.

PC3-DAB2IP KD cells = experiment: Haptotactic cell migration toward fibronectin, PC3-DAB2IP KD; assay type: cell-based, human; conditions: 4 hours
Excerpt: as §2

[1] = test system: MDA-MB-231, A172-A2 and PC3-DAB2IP KD cells; experiment: Chemotactic cell migration toward hepatocyte growth factor (HGF); assay type: cell-based; conditions: all three cell lines
Excerpt: as §2, with “vitro.” for “vitro. To test this possibility, we first investigated the effects of doxazosin on integrin-mediated haptotactic cell migration toward fibronectin in a modified Boyden chamber cell migration assay.”

[2] = target: T1, rat α1a adrenergic receptor (Rattus norvegicus, UniProt P43140); experiment: Adrenoceptor binding, [3H]-prazosin competition; conditions: [3H]-prazosin 0.25 nM, triplicate, mean±SD; read-out: IC50, α-adrenoceptor binding
T1 construct: Eurofins Panlabs Taiwan, Ltd. (contract assay)
T1 sequence (P43140 1-466): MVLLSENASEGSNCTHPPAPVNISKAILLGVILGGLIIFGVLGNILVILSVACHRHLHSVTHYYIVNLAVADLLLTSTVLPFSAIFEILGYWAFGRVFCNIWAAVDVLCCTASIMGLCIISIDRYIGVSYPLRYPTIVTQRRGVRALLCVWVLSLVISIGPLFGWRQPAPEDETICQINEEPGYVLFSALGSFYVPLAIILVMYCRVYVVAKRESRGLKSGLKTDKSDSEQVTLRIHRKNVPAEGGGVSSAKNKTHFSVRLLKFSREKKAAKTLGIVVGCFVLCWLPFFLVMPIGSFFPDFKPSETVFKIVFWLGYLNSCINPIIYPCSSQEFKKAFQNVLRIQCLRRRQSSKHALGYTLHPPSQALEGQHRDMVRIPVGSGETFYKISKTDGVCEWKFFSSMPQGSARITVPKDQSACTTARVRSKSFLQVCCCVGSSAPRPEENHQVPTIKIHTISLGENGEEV
Method: Analysis of Doxazosin and analog binding to rat α1a adrenergic receptor was performed by Eurofins Panlabs Taiwan, Ltd. (Taiwan). [^3H]-prazosin at 0.25 nM was used as the radioligand. […] Non-specific binding was defined by use of 10 μM phentolamine. Incubations were terminated by vacuum filtration over 0.1% PEI pretreated glass fiber filters and filters were washed for 10 s with ice cold 0.1M NaCl and radioactivity retained on the filters was determined by liquid scintillation spectrometry. IC50 values were determined by a non-linear regression analysis using GraphPad Prism v.5 (GraphPad).

[3] = test system: DU145 and PC-3 cell xenografts; conditions: previously shown, independent of α1-adrenoreceptor; cited from earlier work
ERK1/2 and Akt = experiment: Inhibition of ERK1/2 and Akt activation in A172-A2 cells; assay type: cell-based; conditions: 50 μM and 100 μM
Method: as §1
Activation of EphA2 receptor by ephrin-A1 ligand inhibits both ERK1/2 and Akt kinase activities in most normal cells and a subset of cancer cells. […] We first tested this by utilizing the A172 glioma cells engineered to overexpress EphA2 receptor (A172-A2).

Chain of endogenous EphA2 (P29317 24-976): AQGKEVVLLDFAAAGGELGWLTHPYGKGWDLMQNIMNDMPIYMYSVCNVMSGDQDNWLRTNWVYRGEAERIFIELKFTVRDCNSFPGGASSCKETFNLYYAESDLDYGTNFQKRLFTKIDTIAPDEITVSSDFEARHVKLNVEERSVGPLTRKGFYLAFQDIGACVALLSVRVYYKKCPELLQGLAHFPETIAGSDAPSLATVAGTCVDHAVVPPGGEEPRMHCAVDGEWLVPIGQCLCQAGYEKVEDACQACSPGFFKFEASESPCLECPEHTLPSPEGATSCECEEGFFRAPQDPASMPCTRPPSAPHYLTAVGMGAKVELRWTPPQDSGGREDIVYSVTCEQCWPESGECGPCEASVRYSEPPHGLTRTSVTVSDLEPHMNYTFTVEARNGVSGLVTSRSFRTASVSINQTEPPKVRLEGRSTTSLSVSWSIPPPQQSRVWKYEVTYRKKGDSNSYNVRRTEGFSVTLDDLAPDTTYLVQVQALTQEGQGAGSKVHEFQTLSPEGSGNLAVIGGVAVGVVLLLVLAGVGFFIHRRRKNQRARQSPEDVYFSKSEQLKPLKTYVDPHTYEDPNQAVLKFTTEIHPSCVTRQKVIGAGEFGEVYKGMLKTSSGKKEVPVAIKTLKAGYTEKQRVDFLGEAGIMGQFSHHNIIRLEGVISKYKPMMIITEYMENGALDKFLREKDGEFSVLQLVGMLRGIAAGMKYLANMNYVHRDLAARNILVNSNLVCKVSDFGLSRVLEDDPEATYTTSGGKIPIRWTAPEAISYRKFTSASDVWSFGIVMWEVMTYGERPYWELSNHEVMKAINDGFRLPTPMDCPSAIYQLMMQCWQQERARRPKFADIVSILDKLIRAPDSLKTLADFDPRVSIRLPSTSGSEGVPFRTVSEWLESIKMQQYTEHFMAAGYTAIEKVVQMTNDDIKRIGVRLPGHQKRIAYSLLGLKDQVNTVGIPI

COc1cc2nc(N3CCN(C(=O)C4COc5ccccc5O4)CC3)nc(N)c2cc1OC (stereo not drawn) [Doxazosin, 2-[4-(2,3-Dihydro-1,4-benzodioxine-2-carbonyl)piperazin-1-yl]-6,7-dimethoxyquinazolin-4-amine]
ERK and Akt inhibition after reintroduction of EphA2 (ERK and Akt activities): restored ERK and Akt inhibition
cell rounding (PC-3 cells): caused rounding of PC-3 cells
EphA2 internalization (endogenous EphA2): caused significant internalization of the endogenous EphA2
haptotactic cell migration toward fibronectin (A172-A2 glioma cells): dose-dependent inhibition of cell migration
haptotactic cell migration toward fibronectin (PC3-DAB2IP KD cells): dose-dependent inhibition of cell migration
chemotactic cell migration toward HGF [1]: dose-dependent inhibition
IC50 [2]: 740 ± 300 pM
subcutaneous xenograft growth [3]: moderately decrease subcutaneous growth of DU145 and PC-3 cell xenografts
inhibition of Akt and ERK1/2 activation (ERK1/2 and Akt): significant inhibition of Akt and ERK1/2 activation
